Assay [1] concerns the target PI3 K Alpha (Homo sapiens, UniProt P42336). Briefly: PI3 kinase phosphorylation assays (homogenous solution phase, one step solid phase, ATP depletion/KinaseGlo). It is filed as biochemical. To be noted: read-out: PI3K Alpha IC50. (In general: In Kinase-Glo more light means more ATP remaining.)
Assay [2] deals with A2780 cells. Briefly: Viability assay in A2780 (Cell Titer Glo). To be noted: Homo sapiens; A2780 cells; read-out: A2780 Cell prolif. EC50. The assay is classed as cell-based, human. The method in brief:
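A2780 cells (1,000/well, DMEM + 10% FBS) were exposed to 3-fold serial dilutions of compound for 72 hrs at 37° C, 5% CO2. Viable cells were read by Cell Titer Glo luminescence, in duplicate, and EC50 values were derived from the curves.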
For orientation: ATP-based viability assays read luminescence as a measure of living cells.

Structures are written as SMILES.

Chain of PI3 K Alpha (P42336 whole entry): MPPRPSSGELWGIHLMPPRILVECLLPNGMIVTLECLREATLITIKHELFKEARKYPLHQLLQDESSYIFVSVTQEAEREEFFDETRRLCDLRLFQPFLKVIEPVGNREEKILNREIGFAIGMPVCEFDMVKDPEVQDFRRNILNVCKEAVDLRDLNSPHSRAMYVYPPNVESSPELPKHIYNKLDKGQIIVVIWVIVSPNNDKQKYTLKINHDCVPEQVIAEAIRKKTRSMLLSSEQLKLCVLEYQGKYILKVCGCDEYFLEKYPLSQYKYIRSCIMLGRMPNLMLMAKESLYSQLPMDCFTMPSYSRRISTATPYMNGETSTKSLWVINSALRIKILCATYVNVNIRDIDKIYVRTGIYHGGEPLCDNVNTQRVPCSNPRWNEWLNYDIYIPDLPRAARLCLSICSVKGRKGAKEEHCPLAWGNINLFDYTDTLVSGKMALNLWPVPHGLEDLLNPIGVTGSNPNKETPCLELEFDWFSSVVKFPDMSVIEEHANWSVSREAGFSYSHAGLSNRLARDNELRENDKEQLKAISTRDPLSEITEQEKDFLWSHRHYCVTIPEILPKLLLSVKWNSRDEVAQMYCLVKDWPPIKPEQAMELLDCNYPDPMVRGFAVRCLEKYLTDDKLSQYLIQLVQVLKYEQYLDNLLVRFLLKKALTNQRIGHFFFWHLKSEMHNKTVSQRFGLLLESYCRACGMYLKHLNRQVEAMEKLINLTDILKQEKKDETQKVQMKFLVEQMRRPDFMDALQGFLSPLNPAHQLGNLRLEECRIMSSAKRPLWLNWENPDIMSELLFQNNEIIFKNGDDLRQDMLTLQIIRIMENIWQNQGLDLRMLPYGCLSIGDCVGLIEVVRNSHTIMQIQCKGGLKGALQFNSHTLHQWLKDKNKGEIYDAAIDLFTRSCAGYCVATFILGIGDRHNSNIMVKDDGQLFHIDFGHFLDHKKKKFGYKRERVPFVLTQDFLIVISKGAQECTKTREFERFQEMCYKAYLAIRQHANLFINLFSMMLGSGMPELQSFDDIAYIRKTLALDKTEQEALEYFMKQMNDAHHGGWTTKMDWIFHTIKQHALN
Chain of PI3 K Alpha (P27986 whole entry partner): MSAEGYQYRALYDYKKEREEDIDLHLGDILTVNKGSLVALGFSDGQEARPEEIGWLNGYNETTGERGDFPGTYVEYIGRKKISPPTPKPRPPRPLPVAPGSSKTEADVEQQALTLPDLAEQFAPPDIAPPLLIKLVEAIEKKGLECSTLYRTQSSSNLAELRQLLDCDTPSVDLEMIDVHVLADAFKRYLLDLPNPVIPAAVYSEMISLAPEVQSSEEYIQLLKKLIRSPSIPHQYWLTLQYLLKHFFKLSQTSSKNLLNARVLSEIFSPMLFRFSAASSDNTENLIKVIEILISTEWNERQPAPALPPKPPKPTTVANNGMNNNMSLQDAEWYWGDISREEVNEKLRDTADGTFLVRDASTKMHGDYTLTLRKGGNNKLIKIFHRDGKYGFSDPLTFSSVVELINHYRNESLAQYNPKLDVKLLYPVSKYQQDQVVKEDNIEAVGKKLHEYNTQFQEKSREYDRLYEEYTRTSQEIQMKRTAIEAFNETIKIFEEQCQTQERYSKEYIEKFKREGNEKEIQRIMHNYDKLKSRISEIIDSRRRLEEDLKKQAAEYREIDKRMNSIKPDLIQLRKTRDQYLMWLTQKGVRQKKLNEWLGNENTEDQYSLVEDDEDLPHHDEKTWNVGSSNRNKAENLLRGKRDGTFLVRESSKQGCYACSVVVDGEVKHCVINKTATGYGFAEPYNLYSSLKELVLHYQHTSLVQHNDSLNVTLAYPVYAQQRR

The term IC50 denotes the concentration needed to halve the response being measured. In general, EC50 refers to the concentration at which the effect is half-maximal. In the case of `CC(=O)Nc1nc2ccc(-c3cnc(N)c(C(F)(F)F)c3)cn2c1C(N)=O` [Example 243, 2-acetamido-6-(6-amino-5-(trifluoromethyl)pyridin-3-yl)imidazo[1,2-a]pyridine-3-carboxamide], the IC50 in assay [1] was below 1 µM. The EC50 in assay [2] was below 10 µM.

For the compound `CC(=O)Nc1cn2nc(-c3cnc(N)c(C(=O)NCCO)c3)ccc2n1` [Example 140, 5-(2-acetamido-imidazo[1,2-b]pyridazin-6-yl)-2-amino-N-(2-hydroxyethyl) nicotinamide], the IC50 in assay [1] is below 1 µM. In addition, the EC50 in assay [2] was below 25 µM.

For the compound `CC(C)C(=O)Nc1cn2cc(-c3cnc(N)c(OCC(F)(F)F)n3)ccc2n1` [Example 230, N-(6-(5-amino-6-(2,2,2-trifluoroethoxy)pyrazin-2-yl)imidazo[1,2-a]pyridin-2-yl)isobutyramide], the IC50 in assay [1] was below 1 µM. In addition, the EC50 in assay [2] was below 10 µM.

Consider `CC(=O)Nc1nc2ccc(-c3cnc(N)c(C(F)(F)F)c3)cn2c1-c1cccc(F)c1` [Example 10, N-[6-(6-Amino-5-trifluoromethyl-pyridin-3-yl)-3-(3-fluoro-phenyl)-imidazo[1,2-a]pyridin-2-yl]-acetamide], for which the IC50 in assay [1] was below 1 µM. In assay [2], the EC50 is below 25 µM.

For `CC(=O)Nc1cn2cc(-c3cnc(N)c(Br)n3)ccc2n1` [Example 164, N-(6-(5-amino-6-bromopyrazin-2-yl)imidazo[1,2-a]pyridin-2-yl)acetamide], the IC50 in assay [1] is below 1 µM. Also, the EC50 in assay [2] was below 25 µM.

In the case of `CC(C)(C)OC(=O)N1CCC[C@@H]1C(=O)Nc1cn2nc(-c3cnc(N)c(C(F)(F)F)c3)ccc2n1` [Example 179, (R)-tert-butyl amino-5-(trifluoromethyl) pyridin-3-yl)imidazo[1,2-b]pyridazin-2-ylcarbamoyl) pyrrolidine-1-carboxylate], the IC50 in assay [1] was below 1 µM. Also, in assay [2], the EC50 is below 25 µM.

For the compound `CC(C)(C)OC(=O)N1CCC1C(=O)Nc1cn2cc(-c3cnc(N)c(OCC(F)(F)F)n3)ccc2n1` (stereo not drawn) [Example 174, tert-butyl 2-(6-(5-amino-6-(2,2,2-trifluoroethoxy)pyrazin-2-yl)imidazo[1,2-a]pyridin-2-ylcarbamoyl) azetidine-1-carboxylate], in assay [1], the IC50 is below 1 µM. For the same compound, in assay [2], the EC50 is below 25 µM.

In the case of `CC(=O)Nc1cn2cc(-c3cnc(N)c(C(=O)N4CCCC4)c3)ccc2n1` [Example 155, N-(6-(6-amino-5-(pyrrolidine-1-carbonyl)pyridin-3-yl)imidazo[1,2-a]pyridin-2-yl)acetamide], the half-inhibitory concentration (IC50) in assay [1] was below 1 µM. Also, the EC50 in assay [2] is below 25 µM.

`CC(=O)N1CCC[C@H]1C(=O)Nc1cn2cc(-c3cnc(N)c(Cl)c3)ccc2n1` [Example 182, (S)-1-acetyl-N-(6-(6-amino-5-chloropyridin-3-yl)imidazo[1,2-a]pyridin-2-yl)pyrrolidine-2-carboxamide]: in assay [1], the IC50 was below 1 µM. For the same compound, the concentration for a half-maximal effect (EC50) in assay [2] is below 25 µM.

For `Nc1ncc(-c2ccc3nc(NC(=O)[C@H]4CCCN4)cn3n2)cc1C(F)(F)F` [Example 178, (R)-N-(6-(6-amino-5-(trifluoromethyl)pyridin-3-yl)imidazo[1,2-b]pyridazin-2-yl)pyrrolidine-2-carboxamide], the IC50 in assay [1] was below 1 µM. Further, the EC50 in assay [2] is below 25 µM.

For `CN(CC(=O)Nc1cn2cc(-c3cnc(N)c(C(F)(F)F)c3)ccc2n1)C(=O)OC(C)(C)C` [Example 244, tert-butyl 2-(6-(6-amino-5-(trifluoromethyl)pyridin-3-yl)imidazo[1,2-a]pyridin-2-ylamino)-2-oxoethyl(methyl) carbamate], the IC50 in assay [1] is below 1 µM. Further, the concentration giving a half-maximal response (EC50) in assay [2] is below 10 µM.

With `C/C=C/C(=O)Nc1cn2cc(-c3cnc(N)c(C(F)(F)F)c3)ccc2n1` [Example 252, (E)-N-(6-(6-amino-5-(trifluoromethyl)pyridin-3-yl)imidazo[1,2-a]pyridin-2-yl)but-2-enamide], in assay [1], the IC50 is below 1 µM. Further, the EC50 in assay [2] was below 10 µM.

`C=Cc1c(NC(C)=O)nc2ccc(-c3cnc(N)c(C(F)(F)F)c3)cn12` [Example 168, N-(6-(6-amino-5-(trifluoromethyl)pyridin-3-yl)-3-vinylimidazo[1,2-a]pyridin-2-yl)acetamide]: the IC50 in assay [1] was below 1 µM. Also, the half-maximal effective concentration (EC50) in assay [2] is below 25 µM.

For `Nc1ncc(-c2ccc3nc(NC(=O)CO[C@@H]4CCNC4)cn3c2)cc1C(F)(F)F` [Example 214, (R)-N-(6-(6-amino-5-(trifluoromethyl)pyridin-3-yl)imidazo[1,2-a]pyridin-2-yl)-2-(pyrrolidin-3-yloxy)acetamide], the IC50 in assay [1] is below 1 µM. In addition, the EC50 in assay [2] was below 10 µM.

Take `CC(=O)Nc1cn2cc(-c3cnc(N)c(-c4cccc(F)c4)c3)ccc2n1` [Example 134, N-(6-(6-amino-5-(3-fluorophenyl)pyridin-3-yl)imidazo[1,2-a]pyridin-2-yl)acetamide]: in assay [1], the IC50 is below 1 µM. The EC50 in assay [2] was below 10 µM.

Consider `Nc1ncc(-c2ccc3nc(NC(=O)c4ccc(F)nc4)cn3c2)cc1C(F)(F)F` [Example 143, N-(6-(6-amino-5-(trifluoromethyl)pyridin-3-yl)imidazo[1,2-a]pyridin-2-yl)-6-fluoronicotinamide], for which the IC50 in assay [1] was below 1 µM. Moreover, in assay [2], the EC50 was below 25 µM.

Turning to `N#Cc1ccc(C(=O)Nc2cn3cc(-c4cnc(N)c(C(F)(F)F)c4)ccc3n2)cc1` [Example 159, N-(6-(6-amino-5-(trifluoromethyl)pyridin-3-yl)imidazo[1,2-a]pyridin-2-yl)-4-cyanobenzamide], the IC50 in assay [1] is below 1 µM. For the same compound, the EC50 in assay [2] is below 25 µM.

On to `CC(=O)Nc1cn2cc(-c3cnc(N)c(C(=O)N4CCNCC4)c3)ccc2n1` [Example 160, N-(6-(6-amino-5-(piperazine-1-carbonyl)pyridin-3-yl)imidazo[1,2-a]pyridin-2-yl)acetamide], for which, in assay [1], the IC50 was below 1 µM. The EC50 in assay [2] is below 25 µM.

For the compound `CC(=O)N1CCC[C@H]1C(=O)Nc1cn2cc(-c3cnc(N)c(C(F)(F)F)c3)ccc2n1` [Example 172, (S)-1-acetyl-N-(6-(6-amino-5-(trifluoromethyl)pyridin-3-yl)imidazo[1,2-a]pyridin-2-yl)pyrrolidine-2-carboxamide], in assay [1], the IC50 was below 1 µM. Also, the EC50 in assay [2] is below 25 µM.

Turning to `COC(=O)C1CCN(C(=O)Nc2cn3cc(-c4cnc(N)c(C(F)(F)F)c4)ccc3n2)C1` (stereo not drawn) [Example 257, methyl 1-(6-(6-amino-5-(trifluoromethyl)pyridin-3-yl)imidazo[1,2-a]pyridin-2-ylcarbamoyl) pyrrolidine-3-carboxylate], the IC50 in assay [1] was below 1 µM. Further, in assay [2], the EC50 is below 10 µM.

Take `CC(=O)Nc1cccc(-c2c(NC(C)=O)nc3ccc(-c4cnc(N)c(C(F)(F)F)c4)cn23)c1` [Example 9, N-[3-(3-Acetylamino-phenyl)-6-(6-amino-5-trifluoromethyl-pyridin-3-yl)-imidazo[1,2-a]pyridin-2-yl]-acetamide]: the IC50 in assay [1] is below 1 µM. For the same compound, the EC50 in assay [2] is below 25 µM.

Take `C[C@@H](NC(=O)OC(C)(C)C)C(=O)Nc1cn2nc(-c3cnc(N)c(C(F)(F)F)c3)ccc2n1` [Example 253, (R)-tert-butyl 1-(6-(6-amino-5-(trifluoromethyl)pyridin-3-yl)imidazo[1,2-b]pyridazin-2-ylamino)-1-oxopropan-2-ylcarbamate]: the IC50 in assay [1] is below 1 µM. Besides, the 50% effective concentration (EC50) in assay [2] is below 10 µM.

With `CC(=O)Nc1cn2cc(-c3cnc(N)c(OCC4CCN(C)CC4)n3)ccc2n1` [Example 209, N-(6-(5-amino-6-((1-methylpiperidin-4-yl)methoxy)pyrazin-2-yl)imidazo[1,2-a]pyridin-2-yl)acetamide], the IC50 in assay [1] is below 1 µM. Besides, the EC50 in assay [2] was below 10 µM.

In the case of `Nc1ncc(-c2ccc3nc(NC(=O)CCCn4ccnc4)cn3c2)cc1C(F)(F)F` [Example 238, N-(6-(6-amino-5-(trifluoromethyl)pyridin-3-yl)imidazo[1,2-a]pyridin-2-yl)-4-(1H-imidazol-1-yl)butanamide], the IC50 in assay [1] is below 1 µM. For the same compound, the EC50 in assay [2] is below 10 µM.

In the case of `CC(=O)Nc1cn2cc(-c3cnc(N)cn3)ccc2n1` [Example 161, N-(6-(5-aminopyrazin-2-yl)imidazo[1,2-a]pyridin-2-yl)acetamide], the half-inhibitory concentration (IC50) in assay [1] was below 1 µM. For the same compound, in assay [2], the EC50 is below 25 µM.

Regarding `COc1c(-c2cnc(N)c(C(F)(F)F)c2)ccc2nc(NC(=O)C(F)(F)F)cn12` [Example 37, N-(6-(6-amino-5-(trifluoromethyl)pyridin-3-yl)-5-methoxy-imidazo[1,2-a]pyridin-2-yl)-2,2,2-trifluoroacetamide], in assay [1], the IC50 was below 25 µM. Also, in assay [2], the EC50 is below 25 µM.

For the compound `COC[C@@H]1CCCN1C(=O)Nc1cn2cc(-c3cnc(N)c(C(F)(F)F)c3)ccc2n1` [Example 165, (S)-N-(6-(6-amino-5-(trifluoromethyl)pyridin-3-yl)imidazo[1,2-a]pyridin-2-yl)-2-(methoxymethyl) pyrrolidine-1-carboxamide], the IC50 in assay [1] was below 1 µM. The EC50 in assay [2] is below 25 µM.
